Results on two molecules are retold here after ChEMBL document CHEMBL5260858, “Targeting mycobacterial membranes and membrane proteins: Progress and limitations” (Bioorg Med Chem, 2023).

Structures are written as SMILES. ≈ marks a conversion by molar mass, not a printed value.

For assay [1], the system named is Mycobacterium tuberculosis. Briefly: In vivo antimycobacterial activity against Mycobacterium tuberculosis H37Rv infected in BALB/c mouse assessed as reduction in bacterial load at 200 mg/kg, po for 2 weeks. The class given is functional.
Assay [2] relates to Mycobacterium tuberculosis. Briefly: In vivo antimycobacterial activity against Mycobacterium tuberculosis H37Rv infected in BALB/c mouse assessed as reduction in bacterial load at 300 mg/kg, po for 5 days. The note with it: time 5 day. The class given is functional.
Assay [3] concerns Mycobacterium tuberculosis. The experiment in a line: Antitubercular activity against Mycobacterium tuberculosis H37Rv expressing the luxABCDE operon assessed as bacterial growth inhibition incubated for 5 days in low oxygen condition by LORA Assay. Format: functional. The following applies: 120 h, time 5 day.
Assay [4] relates to Mycobacterium tuberculosis. The experiment in a line: Antitubercular activity against Mycobacterium tuberculosis H37Rv expressing the luxABCDE operon assessed as bacterial growth inhibition incubated for 28 hrs in aerobic condition by luminescence analysis. Format: functional.
In assay [5] the test system is Mycobacterium tuberculosis. Briefly: Antitubercular activity against Mycobacterium tuberculosis H37Rv assessed as bacterial growth inhibition incubated for 6 days by MABA analysis. Format: functional. The note with it: 144 h, time 6 day. A general note: Resazurin is reduced to fluorescent resorufin, in cell work by metabolically active cells.
Assay [6] concerns Mycobacterium tuberculosis. The experiment in a line: Antitubercular activity against Mycobacterium tuberculosis H37Rv expressing the luxABCDE operon infected in human THP-1 cells assessed as reduction in intracellular bacterial load incubated for 72 hrs by luminescence analysis. The class given is functional, organism-based. The following applies: THP-1, 72 h.

For `CNC(=O)c1c(-c2ccc(O)cc2)oc2ccc(O)c(CN3CCCCC3)c12`, the figures for the Activity in assay [1] and in assay [2] were 6.8 log10CFU and 7 log10CFU, respectively.

On to `CCOC(=O)c1c(NC(=O)c2c(F)c(F)c(F)c(F)c2F)sc2c1CCN(CC)C2`, for which the minimum inhibitory concentration (MIC) in assay [3] was over 200 µM; in assay [4], 0.23 µM (≈ 0.103 µg/mL); in assay [5], 0.69 µM (≈ 0.309 µg/mL). The IC50 in assay [6] came to 5.6 µM.

A word on the MIC: it is the lowest concentration that inhibits growth of the organism. Broadly, the IC50 is the concentration at which inhibition is half-maximal.
